Laboratory results published in US20220062205A1, “TREATMENT OF GASTROINTESTINAL DISORDERS AND SYMPTOMS THEREOF” (Indiana University Research and Technology Corporation, priority 2018, published 2022).

Experiments:
[1] = test system: Winnie mice; experiment: Intestinal permeability: FABP1 ELISA in blood sera; type: in vivo, mouse; details: day 14; mean±SEM, n=5
Description: The small molecular APE1/Ref-1 antagonist; APX3330, was administered via IP injections in Winnie mice at a dose of 25 mg/kg (30 G needle, max volume 200 μl) dissolved in Cremphore (2%) (Sigma-Aldrich): Ethanol (2%) in sterile water (96%). Mice received alternating IP injections twice a day with 12-hour intervals, over the course of two weeks during predominate intestinal inflammation. Winnie-sham treated mice received vehicle injections excluding APX3330 drugs. All mice were monitored, weighed and faecal pellets were collected over the course of treatment. On day 14, mice were subjected to an overdose of lethobarb (1:16 dilution, 30 G, 100 μl/20 g) IP injections for blood collections prior to harvesting colon tissues. Puncture allowed for a minimal collection of 600 μl of blood via a 26 G needle. Blood was kept on ice for 2 hours, centrifuged at 12×G at 4° C. for 15 minutes were plasma was collected and stored at −20° C. for subsequent ELISA experiments. Quantikine ELISA (mouse/rat FABP1/L-FABP) (Abcam) measured sera levels for fatty acid binding protein (FABP)-1. All samples were repeated in duplicates for statistical value. […] Microplate reader capable of measuring absorbance at 450 nm, with the correction wavelength set at 540 nm was used to detect FABP-1 protein (ng/mL) in blood sera.

[2] = test system: Winnie mice; experiment: Superoxide production in the myenteric plexus (MitoSOX Red); type: in vivo, mouse; details: distal colon myenteric plexus; mean±SEM, n=4
Description: The small molecular APE1/Ref-1 antagonist; APX3330, was administered via IP injections in Winnie mice at a dose of 25 mg/kg (30 G needle, max volume 200 μl) dissolved in Cremphore (2%) (Sigma-Aldrich): Ethanol (2%) in sterile water (96%). Mice received alternating IP injections twice a day with 12-hour intervals, over the course of two weeks during predominate intestinal inflammation. Winnie-sham treated mice received vehicle injections excluding APX3330 drugs. All mice were monitored, weighed and faecal pellets were collected over the course of treatment. MITOSOX™ Red M36008 (Invitrogen, Australia), acquired mitochondrial-derived production of superoxide in the myenteric ganglia. Briefly, distal colon preparations from control C57BL/6, Winnie-sham treated and Winnie-APX3330 treated mice freshly excised to expose the myenteric plexus. Samples were incubated at 37° C. for 40 minutes with 5 μM MITOSOX™ Red M36008. Tissues were washed with oxygenated physiological saline and fixed with Zamboni's fixative for 1-hour followed by (3×10 minute) 1×PBS washes. Prepared tissues were mounted on glass slides with DAKO fluorescent a mounting medium for imaging Images were captured as previously described above. Images were converted into binary and changes in fluorescence were measured in arbitrary units (arb. Units) relative to ganglion area using ImageJ software (National Institute of Health).

## CCCCCCCCCC(=CC1=C(C)C(=O)C(OC)=C(OC)C1=O)C(=O)O [APX3330]
[1]
  FABP1 in blood sera: 0.6 ± 0.2 ng/mL
[2]
  MitoSOX fluorescence (superoxide production) relative to ganglion area: 19.2±7.5%
